# Reference: patent publication US10822309B2, “Crystalline form of Eluxadoline” (priority 2017, dated 2020)
# Assay: PXRD studies of capped and uncapped samples after storage in stability chambers (polymorphic stability)
# Format: physicochemical
# Description: Eluxadoline Form APO-I can be characterized by a PXRD diffractogram comprising, among other peaks, characteristic peaks, expressed in degrees 2θ (±0.2°), at 6.4°, 6.9° and 11.4°. Preferably, the PXRD diffractogram further comprises at least three peaks, expressed in degrees 2θ (±0.2°), selected from the group consisting of 8.7°, 9.9°, 12.7°, 14.8°, 15.8°, 17.5°, 18.9°, 19.8° and 23.8°. More preferably, the PXRD diffractogram further comprises peaks, expressed in degrees 2θ (±0.2°), at 8.7°, 9.9°, 12.7°, 14.8°, 15.8°, 17.5°, 18.9°, 19.8° and 23.8°. PXRD studies of capped and uncapped samples of Eluxadoline Form APO-I have shown that this crystal form is stable following storage in stability chambers maintained at 27° C./60% RH and 40° C./75% RH for at least 10 days.
# PXRD diffractograms were recorded on a Bruker D8 Discover powder X-ray diffractometer (Bruker-AXS, Karlsruhe, Germany). The generator was a Micro-focus X-ray source (IMSTube: Cu tube with 1.54184 A) with a voltage of 50 kV and current of 1.00 mA, using a divergence slit of 0.3 mm and collimator of 0.3 mm. For each sample, one frame was collected using a still scan with a Pilatus 3R-100 kA detector at the distance of 154.72 mm from the sample. Raw data were evaluated using the program EVA (Bruker-AXS, Karlsruhe, Germany).
structure (smiles),measurement,setting,value
"COc1ccc(CN(C(=O)[C@@H](N)Cc2c(C)cc(C(N)=O)cc2C)[C@@H](C)c2nc(-c3ccccc3)c[nH]2)cc1C(=O)O [Eluxadoline Form APO-I, 5-({[(2S)-2-amino-3-(4-carbamoyl-2,6-dimethylphenyl)propionyl]-[(1S)-1-(4-phenyl-1H-imidazol-2-yl)ethyl]amino}-methyl)-2-methoxybenzoic acid]",crystal form stable following storage (PXRD),stability chamber 27° C./60% RH,at least 10 days
same,crystal form stable / resists polymorph conversion following storage (PXRD),stability chamber 40° C./75% RH,at least 10 days
